According to patent US6630494B2, “Phenyl-substituted 1,4-dihydropyridines” (Bayer Aktiengesellschaft, priority 1983, dated 2003):

Experiments:
[1] = system: DHP (PN-200 110) binding sites in rats' brain; test: Binding affinity to DHP (PN 200-110) binding sites in rats' brain; set-up: species or system rat; details: comparison of binding affinities rats' brain vs rats' heart (Ki heart / Ki brain)
Description: (§1) The binding affinities to PN 200-110 binding sites in rats' brains or rats' hearts are determined according to Rampe, D. R., Rutledge, A., Janis, R. A., Triggle, D. J.: Can. Journ. Physiol. Pharmacol. 65, (1987) 1452.
(§2) This selectivity exceeds that of the known cerebrally active Ca^2+-antagonistic dihydropyridines nimodipine and nicardipine. This is seen e.g. in the comparison of the binding affinities to DHP (PN-200 110) binding sites in rats' brain and rats' heart [cf. Rampe, D. R., Rutledge, A., Janis, R. A., Triggle, D. J., Can. Journ. Physiol. Pharmacol. 65 (1987), 1452].

[2] = target: T1, DHP (PN-200 110) binding sites in rats' heart (Rattus norvegicus, UniProt P22002); test: Binding affinity to DHP (PN 200-110) binding sites in rats' heart; details: PN 200-110 (DHP) binding sites
T1 construct: from tissue; host or cells: rat heart
T1 sequence (P22002 whole entry, other chains not shown): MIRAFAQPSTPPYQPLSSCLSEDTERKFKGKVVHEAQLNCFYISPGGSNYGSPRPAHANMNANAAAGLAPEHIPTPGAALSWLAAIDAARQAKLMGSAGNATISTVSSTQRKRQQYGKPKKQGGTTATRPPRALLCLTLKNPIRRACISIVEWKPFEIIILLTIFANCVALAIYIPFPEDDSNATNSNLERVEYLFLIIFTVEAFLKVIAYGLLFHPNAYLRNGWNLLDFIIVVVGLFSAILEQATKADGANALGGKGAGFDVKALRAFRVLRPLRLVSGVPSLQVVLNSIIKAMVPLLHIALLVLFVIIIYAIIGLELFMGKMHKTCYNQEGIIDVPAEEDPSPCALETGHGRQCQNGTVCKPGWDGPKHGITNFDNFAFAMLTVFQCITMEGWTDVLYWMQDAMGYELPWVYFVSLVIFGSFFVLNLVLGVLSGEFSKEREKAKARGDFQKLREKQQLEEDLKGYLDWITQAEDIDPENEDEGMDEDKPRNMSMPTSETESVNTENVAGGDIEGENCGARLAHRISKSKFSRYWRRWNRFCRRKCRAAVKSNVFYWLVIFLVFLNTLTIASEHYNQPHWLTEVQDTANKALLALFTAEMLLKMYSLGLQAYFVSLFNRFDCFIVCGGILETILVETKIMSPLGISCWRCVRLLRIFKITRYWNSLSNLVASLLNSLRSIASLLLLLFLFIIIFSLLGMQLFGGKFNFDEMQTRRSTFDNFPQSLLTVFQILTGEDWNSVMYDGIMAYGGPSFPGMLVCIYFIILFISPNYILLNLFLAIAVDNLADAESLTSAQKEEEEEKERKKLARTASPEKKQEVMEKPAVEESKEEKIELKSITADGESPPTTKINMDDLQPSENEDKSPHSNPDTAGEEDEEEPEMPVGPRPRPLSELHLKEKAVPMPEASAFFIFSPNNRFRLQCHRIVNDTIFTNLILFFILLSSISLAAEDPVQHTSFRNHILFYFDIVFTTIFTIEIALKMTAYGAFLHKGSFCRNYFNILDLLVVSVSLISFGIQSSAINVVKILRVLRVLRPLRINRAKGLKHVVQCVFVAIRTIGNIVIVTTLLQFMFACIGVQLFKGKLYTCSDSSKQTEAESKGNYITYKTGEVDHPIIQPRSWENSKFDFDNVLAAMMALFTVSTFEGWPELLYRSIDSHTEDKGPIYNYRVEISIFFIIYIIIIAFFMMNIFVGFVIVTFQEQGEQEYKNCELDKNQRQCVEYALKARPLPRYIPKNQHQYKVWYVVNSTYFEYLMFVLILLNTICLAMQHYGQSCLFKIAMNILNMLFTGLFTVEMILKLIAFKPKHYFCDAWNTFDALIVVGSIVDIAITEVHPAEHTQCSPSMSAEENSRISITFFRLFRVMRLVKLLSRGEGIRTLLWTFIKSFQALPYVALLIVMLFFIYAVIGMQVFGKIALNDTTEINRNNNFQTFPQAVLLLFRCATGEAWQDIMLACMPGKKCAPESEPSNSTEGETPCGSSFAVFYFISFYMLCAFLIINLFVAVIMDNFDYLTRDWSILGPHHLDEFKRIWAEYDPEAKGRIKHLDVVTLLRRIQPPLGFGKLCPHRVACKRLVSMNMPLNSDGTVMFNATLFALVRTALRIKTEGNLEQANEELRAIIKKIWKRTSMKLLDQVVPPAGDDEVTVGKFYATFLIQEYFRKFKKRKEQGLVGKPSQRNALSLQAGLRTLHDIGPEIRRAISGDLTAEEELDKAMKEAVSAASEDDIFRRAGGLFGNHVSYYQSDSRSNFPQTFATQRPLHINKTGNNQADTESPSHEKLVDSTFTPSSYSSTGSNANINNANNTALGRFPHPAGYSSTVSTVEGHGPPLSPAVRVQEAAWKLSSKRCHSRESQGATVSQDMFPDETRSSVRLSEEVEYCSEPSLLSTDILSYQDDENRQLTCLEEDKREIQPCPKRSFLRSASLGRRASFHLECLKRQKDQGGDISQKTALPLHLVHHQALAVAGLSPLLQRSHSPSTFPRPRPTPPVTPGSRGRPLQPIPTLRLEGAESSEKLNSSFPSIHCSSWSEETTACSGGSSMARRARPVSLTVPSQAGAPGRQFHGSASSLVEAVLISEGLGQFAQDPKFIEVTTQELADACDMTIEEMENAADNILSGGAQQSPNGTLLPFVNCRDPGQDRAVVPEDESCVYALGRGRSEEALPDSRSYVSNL
T1 sequence (P54290 25-944 partner limits assumed, other chains not shown): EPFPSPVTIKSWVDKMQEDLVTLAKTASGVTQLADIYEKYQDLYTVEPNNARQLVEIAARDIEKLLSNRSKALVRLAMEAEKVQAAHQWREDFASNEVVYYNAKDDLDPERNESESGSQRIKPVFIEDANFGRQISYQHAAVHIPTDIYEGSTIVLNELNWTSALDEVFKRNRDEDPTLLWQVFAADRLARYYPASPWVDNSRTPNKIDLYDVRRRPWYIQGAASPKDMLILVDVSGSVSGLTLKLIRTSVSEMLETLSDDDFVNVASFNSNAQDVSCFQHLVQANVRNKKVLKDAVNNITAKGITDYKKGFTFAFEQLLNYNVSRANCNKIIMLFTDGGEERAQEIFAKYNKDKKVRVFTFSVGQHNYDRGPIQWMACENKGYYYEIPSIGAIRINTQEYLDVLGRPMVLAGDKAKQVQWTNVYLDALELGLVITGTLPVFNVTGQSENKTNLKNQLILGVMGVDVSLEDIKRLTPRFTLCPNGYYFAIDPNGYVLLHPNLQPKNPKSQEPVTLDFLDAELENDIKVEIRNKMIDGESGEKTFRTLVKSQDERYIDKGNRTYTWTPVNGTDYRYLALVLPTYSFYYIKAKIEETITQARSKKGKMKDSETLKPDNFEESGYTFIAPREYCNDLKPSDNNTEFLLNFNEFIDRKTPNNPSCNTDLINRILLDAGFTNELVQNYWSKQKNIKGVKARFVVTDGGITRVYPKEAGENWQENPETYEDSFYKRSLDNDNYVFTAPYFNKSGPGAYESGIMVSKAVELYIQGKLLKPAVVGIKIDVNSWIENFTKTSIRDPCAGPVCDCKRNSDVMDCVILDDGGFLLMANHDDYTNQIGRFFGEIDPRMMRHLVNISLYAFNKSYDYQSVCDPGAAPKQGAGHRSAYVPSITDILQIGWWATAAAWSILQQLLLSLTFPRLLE
T1 sequence (P54290 945-1091 partner limits assumed, other chains not shown): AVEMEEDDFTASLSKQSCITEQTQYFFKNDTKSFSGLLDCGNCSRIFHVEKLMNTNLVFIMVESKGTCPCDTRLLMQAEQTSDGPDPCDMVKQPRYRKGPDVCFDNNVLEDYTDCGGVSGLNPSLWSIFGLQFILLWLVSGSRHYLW
Description: as §1, §2

melting point [°C]	Selectivity [1]	Ki [2] [nM]	SMILES
57 to 59	–	–	COCCOC(=O)C1=C(C)NC(C)=C(C(=O)OC(C)C)C1c1c(F)cccc1Cl (racemic) [Example 3, (±) isopropyl 2-methoxyethyl 4-(2-chloro-6-fluorophenyl)-1,4-dihydro-2,6-dimethylpyridine-3,5-dicarboxylate]
128	–	–	COCCOC(=O)C1=C(C)NC(C)=C(C(=O)OC)C1c1cccc(C(F)(F)F)c1F (racemic) [Example 39, (±) 2-methoxyethyl methyl 4-(2-fluoro-3-trifluoromethylphenyl)-1,4-dihydro-2,6-dimethylpyridine-3,5-dicarboxylate]
135 to 136	–	–	COCCOC(=O)C1=C(C)NC(C)=C(C(=O)OC(C)C)C1c1cccc(F)c1F (racemic) [Example 9, (±) isopropyl 2-methoxyethyl 4-(2,3-difluorophenyl)-1,4-dihydro-2,6-dimethylpyridine-3,5-dicarboxylate]
–	5.7	11.3	COCCOC(=O)C1=C(C)NC(C)=C(C(=O)OC(C)C)C1c1cccc(Cl)c1C#N (racemic) [Example 15, (±) isopropyl 2-methoxyethyl 4-(3-chloro-2-cyanophenyl)-1,4-dihydro-2,6-dimethylpyridine-3,5-dicarboxylate]
140 to 142	–	–	COCCOC(=O)C1=C(C)NC(C)=C(C(=O)OC(C)C)C1c1cccc(C(F)(F)F)c1F (racemic) [Example 27, (±) isopropyl 2-methoxyethyl 4-(2-fluoro-3-trifluoromethylphenyl)-1,4-dihydro-2,6-dimethylpyridine-3,5-dicarboxylate]
–	–	4.6	COCCOC(=O)C1=C(C)NC(C)=C(C(=O)OC(C)C)C1c1cccc([N+](=O)[O-])c1 (centres unmarked) [Nimodipine, nimodipine, reference compound]
119 to 120	–	–	COCCOC(=O)C1=C(C)NC(C)=C(C(=O)OC(C)C)C1c1c(F)cccc1F (racemic) [Example 6, (±) isopropyl 2-methoxyethyl 4-(2,6-difluorophenyl)-1,4-dihydro-2,6-dimethylpyridine-3,5-dicarboxylate]
108 to 109	2.2	7.9	COCCOC(=O)C1=C(C)NC(C)=C(C(=O)OC(C)(C)C)C1c1cccc(C#N)c1 (racemic) [Example 33, (±) tert-butyl 2-methoxyethyl 4-(3-cyanophenyl)-1,4-dihydro-2,6-dimethylpyridine-3,5-dicarboxylate]
79 to 89	10	72	COCCOC(=O)C1=C(C)NC(C)=C(C(=O)OC(C)C)C1c1cc(Cl)ccc1Cl (racemic) [Example 12, (±) isopropyl 2-methoxyethyl 4-(2,5-dichlorophenyl)-1,4-dihydro-2,6-dimethylpyridine-3,5-dicarboxylate]
128 to 130	–	–	COCCOC(=O)C1=C(C)NC(C)=C(C(=O)OC2CCCC2)C1c1cccc(Cl)c1C#N (racemic) [Example 46, (±) cyclopentyl 2-methoxyethyl 4-(2-cyano-3-chlorophenyl)-1,4-dihydro-2,6-dimethylpyridine-3,5-dicarboxylate]
78	3.4	28	COCCOC(=O)C1=C(C)NC(C)=C(C(=O)OC(C)C)C1c1ccc(F)c(F)c1 (racemic) [Example 18]
–	–	14	COC(=O)C1=C(C)NC(C)=C(C(=O)OCCN(C)Cc2ccccc2)C1c1cccc([N+](=O)[O-])c1 (centres unmarked) [Nicardipine, nicardipine, reference compound]
105	–	–	COCCOC(=O)C1=C(C)NC(C)=C(C(=O)OC2CCCC2)C1c1cccc(C(F)(F)F)c1F (racemic) [Example 36, (±) cyclopentyl 2-methoxyethyl 4-(2-fluoro-3-trifluoromethylphenyl)-1,4-dihydro-2,6-dimethylpyridine-3,5-dicarboxylate]
119 to 120	4.7	8	COCCOC(=O)C1=C(C)NC(C)=C(C(=O)OC2CCCC2)C1c1cccc(C#N)c1Cl (racemic) [Example 30, (±) cyclopentyl 2-methoxyethyl 4-(2-chloro-3-cyanophenyl)-1,4-dihydro-2,6-dimethylpyridine-3,5-dicarboxylate]
